Experimental findings from ChEMBL document CHEMBL3507680, “University of Dundee, Gates Library screen for HepG2 cell viability” are described below.

Structures are written as SMILES.

The data set in a line: Human HepG2 cell viability assay in 384 well format. It is filed as toxicity, cell-based. The arrangement: dose 125 nL, time 70.5 hour; cytotoxicity at 70.5 h: concentration not given beside the values. The following applies: HepG2 cells, read-out: Inhibition.
For `Cn1cc(C(=O)N2CC[C@@H]3[C@@H]2CCN3Cc2ccccc2)cn1`, the cytotoxicity at 70.5 h was -15%.

Turning to `COc1cc(C(=O)NS(=O)(=O)c2cccc(C#N)c2)cc(Cl)c1OC`, the cytotoxicity at 70.5 h is -8.04%.

Turning to `COC(=O)CC1CSCCN1C(=O)CCc1c(C)nn(C)c1C` (stereo not drawn), the cytotoxicity at 70.5 h is -7.68%.

With `Cc1noc(C)c1CN1C[C@@H](N(C)Cc2ccco2)[C@H]2OCCC[C@H]21`, the cytotoxicity at 70.5 h was -6.48%.

Take `O=C(C1CC(c2ccccc2)=NO1)N1CCc2ccccc21` (stereo not drawn): the cytotoxicity at 70.5 h is 28.5%.

For `CCNC(=O)CN(CC)C(=O)c1csc(Cc2ccccc2F)n1`, the cytotoxicity at 70.5 h was -13.1%.

As to `OC1CCN(c2ccccc2NCc2nc(-c3cccs3)no2)CC1`, the cytotoxicity at 70.5 h was -10.7%.

For `OCCC1CCN(c2ccnc3ccsc23)C1` (stereo not drawn), the cytotoxicity at 70.5 h was -3.95%.

As for `CC(=O)N1CCCN(C(=O)NCCOc2ccc3c(c2)CCC3)CC1`, the cytotoxicity at 70.5 h was -4.61%.

Turning to `Cn1cc(C(=O)Nc2ccc(CC(=O)NC3CC3)cc2)nn1`, the cytotoxicity at 70.5 h was -6.27%.

With `CN(C)C[C@]12COC[C@H]1CN(Cc1ccc3c(c1)OCO3)C2`, the cytotoxicity at 70.5 h is -2.79%.

With `CCCc1n[nH]c(C2CN(CCNS(C)(=O)=O)CCO2)n1` (stereo not drawn), the cytotoxicity at 70.5 h is 25.5%.

Regarding `O=C(N[C@H]1CCCC[C@@H]1O)c1ccc2nc(-c3ccccc3)[nH]c2c1`, the cytotoxicity at 70.5 h stood at 9.22%.

`Cc1nn(C)c(C)c1CN(C)C(=O)C1COc2ccccc2C1` (stereo not drawn): the cytotoxicity at 70.5 h was -3.84%.

With `CCC(NC(=O)c1coc(COc2cccc(F)c2F)n1)C(=O)NC` (stereo not drawn), the cytotoxicity at 70.5 h is -9.68%.

Take `CC(=O)NCCNC(=O)Nc1cccc(Cl)c1SC(F)F`: the cytotoxicity at 70.5 h is -0.195%.

Regarding `O=C(c1ccc2[nH]cnc2c1)N1CCC(Oc2cccnc2)CC1`, the cytotoxicity at 70.5 h is -6.98%.

As for `Cc1ccc2nc(C3CCCN3Cc3cccc(CCN)c3)[nH]c2c1` (stereo not drawn), the cytotoxicity at 70.5 h is -4.63%.

Take `CC1CCN(S(=O)(=O)c2cccn(CC(=O)NC3CCCC3)c2=O)CC1`: the cytotoxicity at 70.5 h was -3.39%.

Take `O=C(NCc1cccnc1N1CCCCC1)c1ccc2[nH]nnc2c1`: the cytotoxicity at 70.5 h came out at 41.6%.

Take `CN(CC(=O)Nc1cc(C(C)(C)C)n[nH]1)S(C)(=O)=O`: the cytotoxicity at 70.5 h amounted to 12%.

On to `Cc1ncsc1C(=O)NC1CCN(Cc2ccc(C(N)=O)cc2)CC1`, for which the cytotoxicity at 70.5 h is 1.08%.

As to `Cn1ccnc1CN1C(=O)CO[C@H]2CN(CCCc3ccccc3)C[C@H]21`, the cytotoxicity at 70.5 h is -1.68%.

On to `CN(C)c1cc2c(nn1)CCN(C(=O)Cc1noc3ccccc13)C2`, for which the cytotoxicity at 70.5 h is 9.27%.

Consider `Cc1nnc(CN2CCN(Cc3nccn3C)CC2)n1C`, for which the cytotoxicity at 70.5 h is -8.45%.

On to `COc1ccc(C2CCCCCN2S(C)(=O)=O)cc1` (stereo not drawn), for which the cytotoxicity at 70.5 h amounted to 1.84%.

Regarding `O=C(Cc1csc(-c2ccco2)n1)N1CCN(c2cnccn2)CC1`, the cytotoxicity at 70.5 h was 1.22%.

Regarding `Cc1cc(CCC(=O)NCc2ncc[nH]2)ccc1Br`, the cytotoxicity at 70.5 h is -0.138%.

Turning to `Cn1nccc1C(=O)N1CCOC(Cc2ccc(Cl)cc2)C1` (stereo not drawn), the cytotoxicity at 70.5 h is 0.563%.

On to `CN(CCc1ccccc1)c1cnn(CC(=O)N2CCSCC2)c(=O)c1`, for which the cytotoxicity at 70.5 h is -3.48%.

`CCCOc1cccc(OCc2ccon2)c1`: the cytotoxicity at 70.5 h is -7.15%.

For `CCc1nc(C)c(C2CC(=O)Nc3c2c(-c2cccnc2)nn3C)[nH]1` (stereo not drawn), the cytotoxicity at 70.5 h is -5.87%.

On to `O=C(CN1CCOC(Cn2cccn2)C1)NCc1cccs1` (stereo not drawn), for which the cytotoxicity at 70.5 h is -8.73%.

Regarding `CCOc1cc(C)nc(N2CCN(C(=O)c3ccc[nH]3)CC2)n1`, the cytotoxicity at 70.5 h is -7.65%.

Turning to `Cc1ccc(NC(=O)NCCn2cnc(C)c(C)c2=O)cc1F`, the cytotoxicity at 70.5 h was -1.25%.

For `CC(C)NC(=O)CN(C)C1CCN(c2ccc(Cl)cn2)CC1`, the cytotoxicity at 70.5 h is -7%.

As to `O=C(NCC1(O)CCOc2ccccc21)Nc1ccccc1` (stereo not drawn), the cytotoxicity at 70.5 h turned out to be 1.09%.

For `CCc1c(O)nc2nc(N3CCOCC3)nn2c1C`, the cytotoxicity at 70.5 h is -11%.

Turning to `Cc1n[nH]c(C)c1CN(C)C(C(=O)O)c1c(F)cccc1OC(C)C` (stereo not drawn), the cytotoxicity at 70.5 h is -4.07%.

For the molecule `CCCN1CCN(CC(O)c2ccc(OC(F)(F)F)cc2)CC1` (stereo not drawn), the cytotoxicity at 70.5 h was -0.084%.

Turning to `CC(C)Oc1ncccc1CNC(=O)NC(C)c1cccs1` (stereo not drawn), the cytotoxicity at 70.5 h is -21%.

Turning to `CN(C)Cc1cc(=O)n2c(n1)CN(C(=O)Cc1ccsc1)CCC2`, the cytotoxicity at 70.5 h was -12.5%.

Take `O=C(c1cnccn1)N1CCc2onc(CN3CCOCC3)c2C1`: the cytotoxicity at 70.5 h is 23.2%.

With `CN(Cc1ccccc1)C(=O)CCNS(=O)(=O)c1cccnc1`, the cytotoxicity at 70.5 h is 11.8%.

On to `CN(C)C(=O)CN1CC[C@]2(CN(CC3CC3)C[C@H]2c2ccccc2)C1=O`, for which the cytotoxicity at 70.5 h was -6.06%.

With `CCS(=O)(=O)NCCCNC1CSCCc2ccccc21` (stereo not drawn), the cytotoxicity at 70.5 h is -7.41%.

Take `c1cc(CO[C@H]2CC[C@H]3[C@H]2OCCN3Cc2nccs2)ccn1`: the cytotoxicity at 70.5 h is -2.27%.

As for `CSCC[C@@H](CO)NC(=O)c1sc(-c2ccc(Cl)cc2)nc1C`, the cytotoxicity at 70.5 h is -11.9%.

Turning to `CCCNC(=O)CCNC(=O)N1CCc2c(F)ccc(F)c2C1`, the cytotoxicity at 70.5 h was determined as 3.2%.

As to `O=C(NC1CCC1)[C@H]1C[C@@H]2[C@@H](C1)OCCN2CC1CC1`, the cytotoxicity at 70.5 h turned out to be 0.808%.

For the molecule `CCn1cc(CN2CCCC2c2nc(C(C)C)no2)cc1C#N` (stereo not drawn), the cytotoxicity at 70.5 h is 21%.

Consider `Cc1nc(Nc2cnccn2)cc(C2CCN(CCO)C2)n1` (stereo not drawn), for which the cytotoxicity at 70.5 h is -9.95%.

`Cn1ccc(CS(=O)(=O)Cc2ccccc2)cc1=O`: the cytotoxicity at 70.5 h is -12.9%.

On to `Cn1ncc2c(NCC(=O)N3CCNCC3)nc(C(C)(C)C)nc21`, for which the cytotoxicity at 70.5 h is -1.24%.

With `O=C1CO[C@H]2CN(C3CCOCC3)C[C@H]2N1Cc1ccc(F)cc1`, the cytotoxicity at 70.5 h worked out at 16.1%.

Consider `CN1CCN(CC2CC2)C(=O)c2cnc(N3CCCCC3)nc21`, for which the cytotoxicity at 70.5 h is 30.2%.

Consider `N#CCCN(Cc1ccco1)C(=O)CCCc1ccccc1`, for which the cytotoxicity at 70.5 h was -4.22%.

As to `Cc1noc(Cl)c1CCC(=O)N1CCN(c2ncccn2)CC1`, the cytotoxicity at 70.5 h is -7.01%.

Regarding `COCCNC(=O)NC(=O)CNc1c(F)cccc1N1CCCC1`, the cytotoxicity at 70.5 h is -16.6%.

`CC(C)N1CCCn2c(nc(CNC(=O)c3nccn3C)cc2=O)C1`: the cytotoxicity at 70.5 h is -17.1%.

Take `Cc1cnc(C(=O)N2CCCCC2c2ccc(CN(C)C)cc2)cn1` (stereo not drawn): the cytotoxicity at 70.5 h was 8.8%.

As to `CNC(=O)Cc1ccc(NC(=O)NC(C)C(C)C)cc1` (stereo not drawn), the cytotoxicity at 70.5 h was -15.4%.

`COCC1CN(C(=O)c2cccs2)Cc2nccn2C1` (stereo not drawn): the cytotoxicity at 70.5 h is -8.64%.

Take `CC(C)Nc1nc2c(c(NC3CC3)n1)CN(C(=O)c1ccnnc1)CC2`: the cytotoxicity at 70.5 h came out at 32.6%.

Turning to `CCc1cc(N2CCN(C(C)=O)CC2)n2nc(C)c(C)c2n1`, the cytotoxicity at 70.5 h was 10.6%.

With `CC(C)C(C)(C#N)NC(=O)Cn1nnc(-c2cc3ccccc3o2)n1` (stereo not drawn), the cytotoxicity at 70.5 h turned out to be 18.2%.

For the molecule `Cn1cc(C2COC3(CCN(C(=O)c4ccc(F)cc4)CC3)C2)cn1` (stereo not drawn), the cytotoxicity at 70.5 h was -2.41%.

For the molecule `NC(=O)c1c[nH]nc1NC(=O)c1ccc(Cl)cc1`, the cytotoxicity at 70.5 h is -3.88%.

On to `Cc1ccc2c(c1)C(NC1CCN(C)CC1)CCCO2` (stereo not drawn), for which the cytotoxicity at 70.5 h was determined as 15.4%.

Consider `CCN1C[C@H]2CCN(c3ncccn3)CC[C@H]2S1(=O)=O`, for which the cytotoxicity at 70.5 h is 1.89%.

For the molecule `Cc1cc(C)cc(C2(C(=O)N3CCCC(n4cncn4)C3)CC2)c1` (stereo not drawn), the cytotoxicity at 70.5 h is -17.8%.

`CCN1CCC(CNCc2cc(C)ccc2OC)C1` (stereo not drawn): the cytotoxicity at 70.5 h was -8.51%.

Regarding `Cc1cccc(S(=O)(=O)N2CC[C@H]3CO[C@H](CN(C)C)[C@H]3C2)c1`, the cytotoxicity at 70.5 h was -6.86%.

In the case of `CC(c1nc(C(C)(C)C)no1)N1CCN(C(=O)CN2CCOCC2)CC1` (stereo not drawn), the cytotoxicity at 70.5 h is -6.71%.

Take `COc1ccc2c(c1)OCC(CNC(=O)c1ccc3[nH]nnc3c1)C2` (stereo not drawn): the cytotoxicity at 70.5 h was -9.44%.

For the molecule `O=C1C(NCc2nnc3n2CCCC3)CCCN1c1cccc(F)c1` (stereo not drawn), the cytotoxicity at 70.5 h is -3.38%.

In the case of `CN(Cc1cnn(C)c1)C(=O)c1cc2ccccc2c(=O)[nH]1`, the cytotoxicity at 70.5 h is -9.32%.

In the case of `COCc1ccccc1C(=O)NS(=O)(=O)c1ccc2c(c1)CCC(=O)N2`, the cytotoxicity at 70.5 h was -9.29%.

Regarding `CC(=O)NCC(=O)N1CCN(C)c2ncccc2C1`, the cytotoxicity at 70.5 h was -11.3%.

As for `Oc1ccc2oc3c(c2c1CN1CCOCC1)CCCC3`, the cytotoxicity at 70.5 h is -8.06%.

Consider `O=C(NC1CCCCC1)c1nnc2ccc(N3CCOCC3)cc2n1`, for which the cytotoxicity at 70.5 h was -8.08%.

For `Cc1cnn(CCC(=O)N2CCC(Nc3cccnn3)CC2)c1`, the cytotoxicity at 70.5 h was determined as 18.3%.

For the molecule `Cc1oc(-c2nc(C#N)c(NCC(C)C)o2)cc1S(=O)(=O)N1CCCC1`, the cytotoxicity at 70.5 h was -13.1%.

On to `N#Cc1ncn(CCC(=O)Nc2c(Cl)cccc2Cl)n1`, for which the cytotoxicity at 70.5 h is -6.06%.

For `CC(NCc1cc2cc(F)ccc2o1)c1nnc2n1CCCC2` (stereo not drawn), the cytotoxicity at 70.5 h is -5.97%.

With `COc1ccc(OC)c(-n2cnnc2COC(C)C)c1`, the cytotoxicity at 70.5 h was -0.141%.

`CCN1CCC2(CC1)OCCN2C(=O)c1ccc(OC)c(Cl)c1`: the cytotoxicity at 70.5 h was determined as 3.75%.

On to `O=C(C1CC=CC1)N1CCCn2nnc(CNc3ncccn3)c2C1`, for which the cytotoxicity at 70.5 h was 0.685%.

`Cc1ccsc1C1CCCCCN1Cc1cn(C)nc1C` (stereo not drawn): the cytotoxicity at 70.5 h is -13.5%.

Take `CC(C)c1cn(CC(=O)NC2CC(=O)N(CCc3ccccc3)C2)nn1` (stereo not drawn): the cytotoxicity at 70.5 h is -3.95%.

`Cc1ccn2ncc(C(=O)N3CCCC(c4noc(C)n4)C3)c2n1` (stereo not drawn): the cytotoxicity at 70.5 h turned out to be 14.9%.

As for `O=c1nc(SCc2ccc(Cl)cc2)c2c(n1CCO)CCC2`, the cytotoxicity at 70.5 h stood at 20.9%.

On to `O=C(Cc1cccc(F)c1)NCCNS(=O)(=O)C1CCCC1`, for which the cytotoxicity at 70.5 h was -12.5%.

Consider `COc1ccc(Cl)cc1-c1cc(NC(=O)C2CNC(=O)N2)[nH]n1` (stereo not drawn), for which the cytotoxicity at 70.5 h worked out at 1.69%.

Consider `COc1cccc(Cn2[nH]c(C)c3c(NC(=O)C(C)OC)nnc2-3)c1` (stereo not drawn), for which the cytotoxicity at 70.5 h is -6.21%.

Turning to `Cc1nccc(C(=O)N2CCCC2c2c(C)nn(C)c2C)n1` (stereo not drawn), the cytotoxicity at 70.5 h was 16.2%.

Consider `Cc1ncc2c(n1)CN(CCOc1ccc3c(c1)CCC(=O)N3)CC2`, for which the cytotoxicity at 70.5 h was -6.43%.

With `CSCCNC(=O)C1CCC(=O)N(C2CCCC2)C1` (stereo not drawn), the cytotoxicity at 70.5 h was found to be 0.162%.
